PubChem BioAssay (NCI)
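Cells were grown in 96-well plates and exposed to each compound for 48 hours at five concentrations; endpoints were interpolated linearly between bracketing concentrations, or set to the highest concentration if not reached. GI50 is the concentration that inhibits growth by half. At the TGI there is no net growth.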

Experiments:
Experiment in all cases: inhibition of tumour cell growth, NCI panel, 48 h
CCRF-CEM leukemia = system: CCRF-CEM leukemia
KM12 colon = system: KM12 colon
M14 melanoma = system: M14 melanoma
MCF7 breast = system: MCF7 breast
MOLT-4 leukemia = system: MOLT-4 leukemia
PC-3 prostate = system: PC-3 prostate
SF-539 CNS = system: SF-539 CNS
SK-OV-3 ovarian = system: SK-OV-3 ovarian
SNB-75 CNS = system: SNB-75 CNS
TK-10 renal = system: TK-10 renal

SMILES	GI50 (CCRF-CEM leukemia)	TGI (CCRF-CEM leukemia)	GI50 (KM12 colon)	TGI (KM12 colon)	GI50 (M14 melanoma)	TGI (M14 melanoma)	GI50 (MCF7 breast)	TGI (MCF7 breast)	GI50 (MOLT-4 leukemia)	TGI (MOLT-4 leukemia)	GI50 (PC-3 prostate)	TGI (PC-3 prostate)	GI50 (SF-539 CNS)	TGI (SF-539 CNS)	GI50 (SK-OV-3 ovarian)	TGI (SK-OV-3 ovarian)	GI50 (SNB-75 CNS)	TGI (SNB-75 CNS)	GI50 (TK-10 renal)	TGI (TK-10 renal)
C=C1C(=O)O[C@H]2[C@H]1CC/C(CNS(=O)(=O)c1ccc3ccccc3c1)=C\CC[C@@]1(C)O[C@@H]21	0.399 µM	2.31 µM	10.8 µM	23.8 µM	1.57 µM	3.49 µM	0.943 µM	2.62 µM	1.56 µM	4.71 µM	7.59 µM	21.1 µM	1.73 µM	3.56 µM	16.3 µM	30 µM	10.5 µM	23.6 µM	–	–
C=C1C(=O)O[C@H]2[C@H]1CC/C(CNC(=O)/C=C/c1cccc(OC)c1)=C\CC[C@@]1(C)O[C@@H]21	0.419 µM	5.29 µM	5.8 µM	20.5 µM	1.42 µM	3.11 µM	–	–	2.12 µM	7.36 µM	1.8 µM	3.86 µM	1.27 µM	2.98 µM	11.2 µM	23.3 µM	1.82 µM	8.09 µM	1.15 µM	2.5 µM
O=c1[nH]c(-c2ccccc2)nc2ccc(Cl)cc12	–	–	–	> 100 µM	–	–	–	–	–	> 100 µM	–	–	–	> 100 µM	–	–	–	–	–	> 100 µM
CS(=O)(=O)N(CCC#N)c1ccc(/C=N/NC(=O)CC(=O)Nc2cccc(Cl)c2)cc1	–	> 100 µM	–	> 100 µM	–	> 100 µM	–	–	–	> 100 µM	–	–	–	> 100 µM	–	> 100 µM	–	> 100 µM	–	> 100 µM
C[N+](C)([O-])CCCNc1c2ccccc2nc2cccc([N+](=O)[O-])c12	–	1.96 µM	–	4.36 µM	–	0.772 µM	–	0.623 µM	–	–	–	1.26 µM	–	3.88 µM	–	> 29.4 µM	–	1.4 µM	–	8.19 µM
Cn1ccnc1C(c1nccn1C)C(C)(C)[N+](=O)[O-]	–	> 100 µM	–	> 100 µM	–	> 100 µM	–	–	–	> 100 µM	–	–	–	> 100 µM	–	> 100 µM	–	> 100 µM	–	> 100 µM
Nc1ccc(N=Nc2ccccc2)c(N)n1	29.4 µM	> 100 µM	15.5 µM	56.6 µM	29.4 µM	74.9 µM	–	–	35.4 µM	> 100 µM	21.7 µM	> 100 µM	29.9 µM	> 100 µM	30.1 µM	> 100 µM	–	–	41.2 µM	> 100 µM
Cc1ccc(C(=O)O/N=C2/CCCCC2CN(C)C)cc1 (centres undefined)	–	> 100 µM	–	> 100 µM	–	> 100 µM	–	–	–	> 100 µM	–	–	–	> 100 µM	–	> 100 µM	–	> 100 µM	–	> 100 µM
O=C1O[C@H](C(Cl)(Cl)Cl)N2CCCC12 (some centres undefined)	–	> 100 µM	–	> 100 µM	–	> 100 µM	–	–	–	> 100 µM	–	–	–	> 100 µM	–	> 100 µM	–	> 100 µM	–	> 100 µM
Nc1ccc(-c2nc3ccccc3[nH]2)c(O)c1	–	–	17.9 µM	57.4 µM	30.4 µM	> 100 µM	30.3 µM	> 100 µM	39.7 µM	> 100 µM	23.9 µM	> 100 µM	17.3 µM	53.1 µM	> 100 µM	> 100 µM	87.2 µM	> 100 µM	17.8 µM	84 µM
c1cc(C2CCCCC2)ccc1OCCCCCCN1CCNCC1	1.51 µM	3.39 µM	1.98 µM	3.55 µM	1.98 µM	4.33 µM	1.63 µM	3.32 µM	–	–	2.15 µM	5.97 µM	1.78 µM	3.25 µM	4.16 µM	15.2 µM	1.83 µM	4.5 µM	1.78 µM	3.24 µM
COc1ccccc1/C=C1\CCC(CNc2ccc(Cl)cc2)C1=O (centres undefined)	–	19.7 µM	–	10 µM	–	9.72 µM	–	–	–	27.4 µM	–	–	–	16 µM	–	16.8 µM	–	29.9 µM	–	18.6 µM
CC1=C(SCc2ccccc2)C(=O)c2ccccc2C1=O	–	–	–	35.7 µM	–	–	–	40.6 µM	–	4.51 µM	–	37.3 µM	–	30 µM	–	44.6 µM	–	26.5 µM	–	36.9 µM
CNS(=O)(=O)NN(C)S(=O)(=O)c1ccc(Cl)cc1	–	> 100 µM	–	> 100 µM	–	> 100 µM	–	–	–	> 100 µM	–	–	–	> 100 µM	–	–	–	> 100 µM	–	> 100 µM
Oc1ccc2occ3c2c1CCC3	–	> 100 µM	–	–	–	> 100 µM	–	–	–	> 100 µM	–	–	–	> 100 µM	–	> 100 µM	–	> 100 µM	–	> 100 µM
CC1CCC2(NC1)OC1CC3[C@@H]4CC=C5C=CCC[C@]5(C)C4CC[C@]3(C)C1C2C (some centres undefined)	–	55.4 µM	–	44 µM	–	50.9 µM	–	–	–	66.3 µM	–	–	–	43.2 µM	–	68.4 µM	–	80.6 µM	–	35.3 µM
COc1cc(N=Nc2ccccc2)cc(/C=N\[N-]C(N)=S)c1[O-].COc1cc(N=Nc2ccccc2)cc(/C=N\[N-]C(N)=S)c1[O-].[Fe+4]	15.8 µM	92.6 µM	23 µM	> 100 µM	> 100 µM	> 100 µM	–	–	5.59 µM	44.9 µM	–	–	43.5 µM	> 100 µM	> 100 µM	> 100 µM	35.2 µM	> 100 µM	48.1 µM	> 100 µM
NC1CCCCC1N.O=C([O-])P(=O)([O-])[O-].[Na+].[Pt+4] (centres undefined)	> 100 µM	> 100 µM	> 100 µM	> 100 µM	> 100 µM	> 100 µM	–	–	29.1 µM	> 100 µM	–	–	> 100 µM	> 100 µM	> 100 µM	> 100 µM	> 100 µM	> 100 µM	> 100 µM	> 100 µM
Cc1cc(=O)c2cc(N=Cc3ccc([N+](=O)[O-])o3)ccc2o1	–	> 100 µM	–	> 100 µM	–	> 100 µM	–	> 100 µM	–	> 100 µM	–	–	–	> 100 µM	–	> 100 µM	–	> 100 µM	–	> 100 µM
COc1ccc(S(=O)(=O)N/N=C/CN2C(=O)c3ccccc3C2=O)cc1OC	–	> 100 µM	–	> 100 µM	–	> 100 µM	–	–	–	> 100 µM	–	–	–	> 100 µM	–	> 100 µM	–	> 100 µM	–	–
